Test results from ChEMBL document CHEMBL3784944, “N-Indolylglycosides bearing modifications at the glucose C6-position as sodium-dependent glucose co-transporter 2 inhibitors” (Bioorg Med Chem, 2016).
The source made the active and inactive calls. No cut-off for these calls is given here.

Experiments:
[1] = system: CHO-K1; test: Selectivity ratio of EC50 for human SGLT1 expressed in CHO-K1 cells to EC50 for human SGLT2 expressed in CHO-K1 cells; format: cell-based
[2] = molecular target: T1, Sodium/glucose cotransporter 2 (Homo sapiens, UniProt P31639); test: Inhibition of human SGLT2 expressed in CHO-K1 cells assessed as reduction in [14C]AMG uptake after 120 mins by scintillation counting method; format: cell-based
T1 sequence (P31639 whole entry): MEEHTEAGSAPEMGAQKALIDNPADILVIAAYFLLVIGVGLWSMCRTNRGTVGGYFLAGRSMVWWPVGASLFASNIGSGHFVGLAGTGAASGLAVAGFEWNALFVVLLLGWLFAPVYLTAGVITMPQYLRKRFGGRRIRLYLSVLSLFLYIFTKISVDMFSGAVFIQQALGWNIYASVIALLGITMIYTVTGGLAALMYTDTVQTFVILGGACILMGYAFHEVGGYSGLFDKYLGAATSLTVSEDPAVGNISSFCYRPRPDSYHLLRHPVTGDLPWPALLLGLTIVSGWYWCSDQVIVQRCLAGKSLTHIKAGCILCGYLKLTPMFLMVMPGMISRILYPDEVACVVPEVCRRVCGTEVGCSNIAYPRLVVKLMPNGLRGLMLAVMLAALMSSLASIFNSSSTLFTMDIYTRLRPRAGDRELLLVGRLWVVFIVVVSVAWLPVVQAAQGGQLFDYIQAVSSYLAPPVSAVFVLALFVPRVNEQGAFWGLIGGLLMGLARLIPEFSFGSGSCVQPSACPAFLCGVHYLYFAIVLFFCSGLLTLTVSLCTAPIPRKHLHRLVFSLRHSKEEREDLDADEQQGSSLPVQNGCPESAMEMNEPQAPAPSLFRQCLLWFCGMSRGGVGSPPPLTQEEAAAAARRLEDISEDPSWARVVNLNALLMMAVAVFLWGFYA

[3] = Volume of distribution at steady state in Sprague-Dawley rat at 1.1 mg/kg, iv administered via bolus injection measured at 2 to 5 mins post dose by LC-MS/MS analysis; format: ADME, organism-based; details: in vivo, read-out: Vdss
[4] = system: Rattus norvegicus; test: Effect on glucose AUC in Sprague-Dawley rat at 50 mg/kg, po administered as single dose via oral gavage after 0.5 to 1 hr by oral glucose tolerance test; format: functional, organism-based
[5] = AUC (0 to infinity) in Sprague-Dawley rat at 1.1 mg/kg, po measured at 15 mins to 24 hrs post dose by LC-MS/MS analysis; format: ADME, organism-based; design: dose 1.1 mg/kg, time infinity, route oral; details: in vivo
[6] = Clearance in Sprague-Dawley rat at 1.1 mg/kg, iv administered via bolus injection measured at 2 to 5 mins post dose by LC-MS/MS analysis; format: ADME, organism-based; details: in vivo
[7] = Cmax in Sprague-Dawley rat at 1.1 mg/kg, po measured at 15 mins to 24 hrs post dose by LC-MS/MS analysis; format: ADME, organism-based; design: dose 1.1 mg/kg, route oral; details: in vivo
[8] = Oral bioavailability in Sprague-Dawley rat at 1.1 mg/kg measured at 15 mins to 24 hrs after drug challenge by LC-MS/MS analysis; format: ADME, organism-based; details: in vivo
[9] = Half life in Sprague-Dawley rat at 1.1 mg/kg, iv administered via bolus injection by LC-MS/MS analysis; format: ADME, organism-based; details: in vivo
[10] = Half life in Sprague-Dawley rat at 1.1 mg/kg, po by LC-MS/MS analysis; format: ADME, organism-based; details: in vivo
[11] = Tmax in Sprague-Dawley rat at 1.1 mg/kg, po measured at 15 mins to 24 hrs post dose by LC-MS/MS analysis; format: ADME, organism-based; details: in vivo
[12] = system: Rattus norvegicus; test: Reduction of blood glucose level in Sprague-Dawley rat at 50 mg/kg, po administered as single dose via oral gavage after 0.5 to 1 hr by oral glucose tolerance test; format: functional, organism-based
[13] = system: Rattus norvegicus; test: Induction of glucosuria in Sprague-Dawley rat assessed as increase in glucose excretion per 200 g body weight at 50 mg/kg, administered as single dose via oral gavage after 24 hrs by oral glucose tolerance test (reference value: 0.23 mg); format: functional
[14] = AUC (0 to infinity) in Sprague-Dawley rat at 1.1 mg/kg, iv administered via bolus injection measured at 2 to 5 mins post dose by LC-MS/MS analysis; format: ADME, organism-based; design: dose 1.1 mg/kg, route intravenous, time infinity; details: in vivo
[15] = system: Rattus norvegicus; test: Induction of glucosuria in Sprague-Dawley rat assessed as increase in glucose excretion at 50 mg/kg administered as single dose via oral gavage after 24 hrs by oral glucose tolerance test; format: functional, organism-based

O[C@@H]1[C@@H](O)[C@H](n2cc(Cc3ccc(C4CC4)cc3)c3c(Cl)cccc32)OC[C@H]1O
Ratio EC50 [1]: 2

COC(=O)C(=O)NC[C@H]1O[C@@H](n2cc(Cc3ccc(C4CC4)cc3)c3c(Cl)cccc32)[C@H](O)[C@@H](O)[C@@H]1O
EC50 [2]: 0.284 µM
Ratio EC50 [1]: 20

O=C(NC[C@H]1O[C@@H](n2cc(Cc3ccc(C4CC4)cc3)c3c(Cl)cccc32)[C@H](O)[C@@H](O)[C@@H]1O)C1CC1
EC50 [2]: 0.552 µM

CCOC(=O)CNC(=O)NC[C@H]1O[C@@H](n2cc(Cc3ccc(C4CC4)cc3)c3c(Cl)cccc32)[C@H](O)[C@@H](O)[C@@H]1O
EC50 [2]: 0.515 µM

O=C(NCCCCl)NC[C@H]1O[C@@H](n2cc(Cc3ccc(C4CC4)cc3)c3c(Cl)cccc32)[C@H](O)[C@@H](O)[C@@H]1O
EC50 [2]: 0.151 µM
Ratio EC50 [1]: 6

CCOC(=O)CC(=O)NC[C@H]1O[C@@H](n2cc(Cc3ccc(C4CC4)cc3)c3c(Cl)cccc32)[C@H](O)[C@@H](O)[C@@H]1O
EC50 [2]: 0.118 µM

NC[C@H]1O[C@@H](n2cc(Cc3ccc(C4CC4)cc3)c3c(Cl)cccc32)[C@H](O)[C@@H](O)[C@@H]1O
EC50 [2]: 0.237 µM
Ratio EC50 [1]: 9

CCOC(=O)CNC(=S)NC[C@H]1O[C@@H](n2cc(Cc3ccc(C4CC4)cc3)c3c(Cl)cccc32)[C@H](O)[C@@H](O)[C@@H]1O
EC50 [2]: 0.286 µM
Ratio EC50 [1]: 3

O[C@@H]1[C@@H](O)[C@H](n2cc(Cc3ccc(C4CC4)cc3)c3c(Cl)cccc32)O[C@H](Cn2cc(C3CCCC3)nn2)[C@H]1O
EC50 [2]: 1.59 µM

CCNC(=S)NC[C@H]1O[C@@H](n2cc(Cc3ccc(C4CC4)cc3)c3c(Cl)cccc32)[C@H](O)[C@@H](O)[C@@H]1O
EC50 [2]: 0.716 µM

O[C@@H]1[C@@H](O)[C@H](n2cc(Cc3ccc(C4CC4)cc3)c3c(Cl)cccc32)O[C@H](Cn2cc(C3CC3)nn2)[C@H]1O
EC50 [2]: 0.359 µM

O=C(O)c1cn(C[C@H]2O[C@@H](n3cc(Cc4ccc(C5CC5)cc4)c4c(Cl)cccc43)[C@H](O)[C@@H](O)[C@@H]2O)nn1
EC50 [2]: 2.72 µM

O=C(CCCl)NC[C@H]1O[C@@H](n2cc(Cc3ccc(C4CC4)cc3)c3c(Cl)cccc32)[C@H](O)[C@@H](O)[C@@H]1O
EC50 [2]: 0.16 µM

O=C(NCCCl)NC[C@H]1O[C@@H](n2cc(Cc3ccc(C4CC4)cc3)c3c(Cl)cccc32)[C@H](O)[C@@H](O)[C@@H]1O
EC50 [2]: 0.598 µM

O=C(CCl)NC[C@H]1O[C@@H](n2cc(Cc3ccc(C4CC4)cc3)c3c(Cl)cccc32)[C@H](O)[C@@H](O)[C@@H]1O
EC50 [2]: 0.113 µM

COc1ccc(NC(=S)NC[C@H]2O[C@@H](n3cc(Cc4ccc(C5CC5)cc4)c4c(Cl)cccc43)[C@H](O)[C@@H](O)[C@@H]2O)cc1
EC50 [2]: 0.485 µM

CCOC(=O)C(=O)NC[C@H]1O[C@@H](n2cc(Cc3ccc(C4CC4)cc3)c3c(Cl)cccc32)[C@H](O)[C@@H](O)[C@@H]1O
EC50 [2]: 0.249 µM

CCOC(=O)CCC(=O)NC[C@H]1O[C@@H](n2cc(Cc3ccc(C4CC4)cc3)c3c(Cl)cccc32)[C@H](O)[C@@H](O)[C@@H]1O
EC50 [2]: 0.588 µM

CCOC(=O)NC(=O)NC[C@H]1O[C@@H](n2cc(Cc3ccc(C4CC4)cc3)c3c(Cl)cccc32)[C@H](O)[C@@H](O)[C@@H]1O
EC50 [2]: 1 µM

CNC(=S)NC[C@H]1O[C@@H](n2cc(Cc3ccc(C4CC4)cc3)c3c(Cl)cccc32)[C@H](O)[C@@H](O)[C@@H]1O
EC50 [2]: 0.315 µM

O=C(NC[C@H]1O[C@@H](n2cc(Cc3ccc(C4CC4)cc3)c3c(Cl)cccc32)[C@H](O)[C@@H](O)[C@@H]1O)C(Cl)Cl
EC50 [2]: 0.184 µM

CC(=O)NC[C@H]1O[C@@H](n2cc(Cc3ccc(C4CC4)cc3)c3c(Cl)cccc32)[C@H](O)[C@@H](O)[C@@H]1O
EC50 [2]: 0.042 µM
Vd [3]: 2.7 L/kg
Activity [4]: inactive
AUC(0-inf) [5]: 0.099 µg·h/mL
clearance [6]: 1.13 L/h/kg
Cmax [7]: 0.0252 µg/mL
bioavailability [8]: 10%
half-life [9]: 3.2 h
half-life [10]: 2.5 h
Tmax [11]: 1.2 h
Activity [12]: Active
Activity [13]: 101 mg
AUC(0-inf) [14]: 0.996 µg·h/mL

COc1ccc(C(=O)NC[C@H]2O[C@@H](n3cc(Cc4ccc(C5CC5)cc4)c4c(Cl)cccc43)[C@H](O)[C@@H](O)[C@@H]2O)cc1
EC50 [2]: 2.37 µM

COC(=O)CC(=O)NC[C@H]1O[C@@H](n2cc(Cc3ccc(C4CC4)cc3)c3c(Cl)cccc32)[C@H](O)[C@@H](O)[C@@H]1O
EC50 [2]: 0.039 µM
Activity [15]: inactive

COCCCNC(=S)NC[C@H]1O[C@@H](n2cc(Cc3ccc(C4CC4)cc3)c3c(Cl)cccc32)[C@H](O)[C@@H](O)[C@@H]1O
EC50 [2]: 0.586 µM

O=C(Cc1cccs1)NC[C@H]1O[C@@H](n2cc(Cc3ccc(C4CC4)cc3)c3c(Cl)cccc32)[C@H](O)[C@@H](O)[C@@H]1O
EC50 [2]: 0.499 µM

O=C(CCBr)NC[C@H]1O[C@@H](n2cc(Cc3ccc(C4CC4)cc3)c3c(Cl)cccc32)[C@H](O)[C@@H](O)[C@@H]1O
EC50 [2]: 0.151 µM

O=C(O)CC(=O)NC[C@H]1O[C@@H](n2cc(Cc3ccc(C4CC4)cc3)c3c(Cl)cccc32)[C@H](O)[C@@H](O)[C@@H]1O
EC50 [2]: 3.44 µM

CC(C)C(=O)NC[C@H]1O[C@@H](n2cc(Cc3ccc(C4CC4)cc3)c3c(Cl)cccc32)[C@H](O)[C@@H](O)[C@@H]1O
EC50 [2]: 0.649 µM

O=C(NC[C@H]1O[C@@H](n2cc(Cc3ccc(C4CC4)cc3)c3c(Cl)cccc32)[C@H](O)[C@@H](O)[C@@H]1O)c1ccno1
EC50 [2]: 0.387 µM

COC(=O)c1cn(C[C@H]2O[C@@H](n3cc(Cc4ccc(C5CC5)cc4)c4c(Cl)cccc43)[C@H](O)[C@@H](O)[C@@H]2O)nn1
EC50 [2]: 0.119 µM

O=C(NC[C@H]1O[C@@H](n2cc(Cc3ccc(C4CC4)cc3)c3c(Cl)cccc32)[C@H](O)[C@@H](O)[C@@H]1O)c1ccc(CCl)cc1
EC50 [2]: 2.59 µM

CCOc1cn(C[C@H]2O[C@@H](n3cc(Cc4ccc(C5CC5)cc4)c4c(Cl)cccc43)[C@H](O)[C@@H](O)[C@@H]2O)nn1
EC50 [2]: 0.655 µM

OC[C@H]1O[C@@H](n2cc(Cc3ccc(C4CC4)cc3)c3c(Cl)cccc32)[C@H](O)[C@@H](O)[C@@H]1O
EC50 [2]: 0.014 µM
Ratio EC50 [1]: 2

O=C(CSc1ccccc1)NC[C@H]1O[C@@H](n2cc(Cc3ccc(C4CC4)cc3)c3c(Cl)cccc32)[C@H](O)[C@@H](O)[C@@H]1O
EC50 [2]: 2.09 µM
